Measured values reported in patent US11208400B2, “Substituted 6-(1H-pyrazol-1-yl)pyrimidin-4-amine derivatives and uses thereof” (Bayer Aktiengesellschaft, priority 2016, dated 2021).

The molecules below were run against T1, human Npt2a (Homo sapiens, UniProt Q06495) (assay: Npt2a activity cell based assay, membrane potential dye, CHO T-REx hNpt2a cells). Conditions: doxycycline-induced, depolarization by sodium phosphate influx, average or median values if tested more than once.
T1 construct: expressed in transfected cells
T1 sequence (Q06495 1-639): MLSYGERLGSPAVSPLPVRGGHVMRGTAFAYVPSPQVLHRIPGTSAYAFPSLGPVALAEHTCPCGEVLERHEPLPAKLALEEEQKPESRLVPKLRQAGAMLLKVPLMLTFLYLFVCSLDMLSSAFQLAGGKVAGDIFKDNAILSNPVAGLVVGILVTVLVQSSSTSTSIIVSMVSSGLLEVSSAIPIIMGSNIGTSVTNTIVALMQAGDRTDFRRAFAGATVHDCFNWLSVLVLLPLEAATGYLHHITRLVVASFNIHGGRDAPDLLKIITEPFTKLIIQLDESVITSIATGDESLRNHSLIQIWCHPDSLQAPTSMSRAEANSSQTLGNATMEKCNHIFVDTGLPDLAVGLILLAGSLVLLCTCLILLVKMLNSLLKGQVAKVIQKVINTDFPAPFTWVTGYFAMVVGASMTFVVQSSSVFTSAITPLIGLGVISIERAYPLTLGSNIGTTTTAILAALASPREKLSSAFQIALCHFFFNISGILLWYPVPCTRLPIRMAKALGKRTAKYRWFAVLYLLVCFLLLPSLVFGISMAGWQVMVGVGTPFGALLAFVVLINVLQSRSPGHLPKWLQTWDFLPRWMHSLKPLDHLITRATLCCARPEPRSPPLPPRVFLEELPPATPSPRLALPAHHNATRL
Outline: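 Doxycycline-induced (0.5 μg/mL, 24 h) CHO T-REx cells were loaded with membrane potential dye in sodium-free NHE buffer (pH 7.4) and exposed to compound (50 μM–1 nM, 5 min, room temperature).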

Compound	IC50 [nM]
Cc1cc(C(F)F)n(-c2cc(Nc3c(C)c(-c4ccc(C#N)cc4)nn3C)ncn2)n1 [Example 240, 4-[5-({6-[5-(difluoromethyl)-3-methyl-1H-pyrazol-1-yl]pyrimidin-4-yl}amino)-1,4-dimethyl-1H-pyrazol-3-yl]benzonitrile]	18
CCc1c(Nc2cc(-n3nc(C)cc3C)ncn2)nn(CC2CC2)c1-c1ccc(F)cc1 [Example 143, N-[1-(cyclopropylmethyl)-4-ethyl-5-(4-fluorophenyl)-1H-pyrazol-3-yl]-6-(3,5-dimethyl-1H-pyrazol-1-yl)pyrimidin-4-amine]	415
Cc1c(-c2ccc(C#N)cc2)nn(CC2CC2)c1Nc1cc(-n2nc(C)c3ccncc32)ncn1 [Example 231, 4-[1-(cyclopropylmethyl)-4-methyl-5-{[6-(3-methyl-1H-pyrazolo[3,4-c]pyridin-1-yl)pyrimidin-4-yl]amino}-1H-pyrazol-3-yl]benzonitrile]	2
COc1ccc(-c2nn(CC3CC3)c(Nc3cc(-n4nc(C)c(Cl)c4C)ncn3)c2C)cc1 [Example 482, 6-(4-chloro-3,5-dimethyl-1H-pyrazol-1-yl)-N-[1-(cyclopropylmethyl)-3-(4-methoxyphenyl)-4-methyl-1H-pyrazol-5-yl]pyrimidin-4-amine]	52
CCc1c(Nc2cc(-n3nc(C)c(C(C)(C)O)c3C(F)F)ncn2)nn(C)c1-c1ccc(F)cc1 [Example 190, 2-[5-(difluoromethyl)-1-(6-{[4-ethyl-5-(4-fluorophenyl)-1-methyl-1H-pyrazol-3-yl]amino}pyrimidin-4-yl)-3-methyl-1H-pyrazol-4-yl]propan-2-ol]	210
COc1c(C)nn(-c2cc(Nc3nn(C)c(-c4ccc(F)cc4)c3C)ncn2)c1C [Example 434, N-[5-(4-fluorophenyl)-1,4-dimethyl-1H-pyrazol-3-yl]-6-(4-methoxy-3,5-dimethyl-1H-pyrazol-1-yl)pyrimidin-4-amine]	7
COc1ccc(-c2nn(CC3CC3)c(Nc3cc(-n4nc(C)cc4C)ncn3)c2C)cc1 [Example 491, N-[1-(cyclopropylmethyl)-3-(4-methoxyphenyl)-4-methyl-1H-pyrazol-5-yl]-6-(3,5-dimethyl-1H-pyrazol-1-yl)pyrimidin-4-amine]	220
Cc1nn(-c2cc(Nc3c(C)nn(-c4ccc(C#N)cc4)c3C)ncn2)c(C)c1Cl [Example 208, 4-(4-{[6-(4-chloro-3,5-dimethyl-1H-pyrazol-1-yl)pyrimidin-4-yl]amino}-3,5-dimethyl-1H-pyrazol-1-yl)benzonitrile]	465
CC(=O)c1c(C)nn(-c2cc(Nc3c(C)nn(-c4ccc(C#N)cc4)c3C)ncn2)c1C [Example 451, 4-(4-{[6-(4-acetyl-3,5-dimethyl-1H-pyrazol-1-yl)pyrimidin-4-yl]amino}-3,5-dimethyl-1H-pyrazol-1-yl)benzonitrile]	78
CCc1c(Nc2cc(-n3nc(C)cc3C)ncn2)nn(CC(F)F)c1-c1ccc(F)cc1 [Example 173, N-[1-(2,2-difluoroethyl)-4-ethyl-5-(4-fluorophenyl)-1H-pyrazol-3-yl]-6-(3,5-dimethyl-1H-pyrazol-1-yl)pyrimidin-4-amine]	16
Cc1cc(C(F)F)n(-c2cc(Nc3c(C)c(-c4ccc(C(F)(F)F)cc4)nn3CC3CC3)ncn2)n1 [Example 307, N-{1-(cyclopropylmethyl)-4-methyl-3-[4-(trifluoromethyl)phenyl]-1H-pyrazol-5-yl}-6-[5-(difluoromethyl)-3-methyl-1H-pyrazol-1-yl]pyrimidin-4-amine]	560
CCc1c(-c2ccc(F)cc2)nn(C2CC2)c1Nc1cc(-n2nc(C)cc2C)ncn1 [Example 119, N-[1-cyclopropyl-4-ethyl-3-(4-fluorophenyl)-1H-pyrazol-5-yl]-6-(3,5-dimethyl-1H-pyrazol-1-yl)pyrimidin-4-amine]	870
CCOc1ccc(-c2n[nH]c(Nc3cc(-n4nc(C)cc4C)ncn3)c2Cl)cc1 [Example 39, N-[4-chloro-3-(4-ethoxyphenyl)-1H-pyrazol-5-yl]-6-(3,5-dimethyl-1H-pyrazol-1-yl)pyrimidin-4-amine]	3.2
Cc1cc(C)n(-c2cc(Nc3nn(C)c(-c4ccc(OC(F)(F)F)cc4)c3C)ncn2)n1 [Example 98, 6-(3,5-dimethyl-1H-pyrazol-1-yl)-N-{1,4-dimethyl-5-[4-(trifluoromethoxy)phenyl]-1H-pyrazol-3-yl}pyrimidin-4-amine]	51
COCCn1nc(-c2ccc(C(F)F)cc2)c(C)c1Nc1cc(-n2nc(C)cc2C)ncn1 [Example 536, N-{3-[4-(difluoromethyl)phenyl]-1-(2-methoxyethyl)-4-methyl-1H-pyrazol-5-yl}-6-(3,5-dimethyl-1H-pyrazol-1-yl)pyrimidin-4-amine]	17
Cc1nn(-c2cc(Nc3c(C)c(-c4ccc(C(F)F)cc4)nn3CC3CC3)ncn2)c(C)c1C(O)C1CC1 (single isomer, unassigned) [Example 495, Cyclopropyl {1-[6-({1-(cyclopropylmethyl)-3-[4-(difluoromethyl)phenyl]-4-methyl-1H-pyrazol-5-yl}amino)pyrimidin-4-yl]-3,5-dimethyl-1H-pyrazol-4-yl}methanol]	11
CCc1c(Nc2cc(-n3nc(C)c(Cl)c3C(F)F)ncn2)nn(C)c1-c1ccc(F)cc1 [Example 270, 6-[4-chloro-5-(difluoromethyl)-3-methyl-1H-pyrazol-1-yl]-N-[4-ethyl-5-(4-fluorophenyl)-1-methyl-1H-pyrazol-3-yl]pyrimidin-4-amine]	12
Cc1nn(-c2cc(Nc3nn(CCC4CC4)c(-c4ccc(C#N)cc4)c3C)ncn2)c(C)c1Cl [Example 222, 4-[3-{[6-(4-chloro-3,5-dimethyl-1H-pyrazol-1-yl)pyrimidin-4-yl]amino}-1-(2-cyclopropylethyl)-4-methyl-1H-pyrazol-5-yl]benzonitrile]	44
Cc1cc(C)n(-c2cc(Nc3c(C)c(-c4ccc(C5CC5)cc4)nn3C)ncn2)n1 [Example 324, N-[3-(4-cyclopropylphenyl)-1,4-dimethyl-1H-pyrazol-5-yl]-6-(3,5-dimethyl-1H-pyrazol-1-yl)pyrimidin-4-amine]	270
CCOC(=O)c1c(C)nn(-c2cc(Nc3c(OC)c(-c4ccc(C#N)cc4)nn3CC3CC3)ncn2)c1C [Example 320, ethyl 1-(6-{[3-(4-cyanophenyl)-1-(cyclopropylmethyl)-4-methoxy-1H-pyrazol-5-yl]amino}pyrimidin-4-yl)-3,5-dimethyl-1H-pyrazole-4-carboxylate]	71
Cc1cc(C)n(-c2cc(Nc3nn(C)c(-c4ccc(C(F)F)cc4)c3C)ncn2)n1 [Example 409, N-{5-[4-(difluoromethyl)phenyl]-1,4-dimethyl-1H-pyrazol-3-yl}-6-(3,5-dimethyl-1H-pyrazol-1-yl)pyrimidin-4-amine]	140
COc1c(Nc2cc(-n3nc(C)cc3C(F)F)ncn2)nn(C)c1-c1ccc(C#N)cc1 [Example 410, 4-[3-({6-[5-(difluoromethyl)-3-methyl-1H-pyrazol-1-yl]pyrimidin-4-yl}amino)-4-methoxy-1-methyl-1H-pyrazol-5-yl]benzonitrile]	2
CCc1c(-c2ccc(F)cc2)nn(CC2CC2)c1Nc1cc(-n2nc(C)c(Cl)c2C)ncn1 [Example 115, 6-(4-chloro-3,5-dimethyl-1H-pyrazol-1-yl)-N-[1-(cyclopropylmethyl)-4-ethyl-3-(4-fluorophenyl)-1H-pyrazol-5-yl]pyrimidin-4-amine]	< 1.6
CCc1c(-c2ccc(F)cc2)nn(C)c1Nc1cc(-n2nc(C)c(-c3nnc(C)o3)c2C)ncn1 [Example 226, 6-[3,5-dimethyl-4-(5-methyl-1,3,4-oxadiazol-2-yl)-1H-pyrazol-1-yl]-N-[4-ethyl-3-(4-fluorophenyl)-1-methyl-1H-pyrazol-5-yl]pyrimidin-4-amine]	190
Cc1nn(-c2cc(Nc3nn(C)c(-c4ccc(F)cc4)c3Cl)ncn2)c2ccccc12 [Example 110, N-[4-chloro-5-(4-fluorophenyl)-1-methyl-1H-pyrazol-3-yl]-6-(3-methyl-1H-indazol-1-yl)pyrimidin-4-amine]	22
CCOC(=O)c1c(C)nn(-c2cc(Nc3c(C)c(-c4ccc(C#N)cc4)nn3CC3CC3)ncn2)c1C [Example 149, ethyl 1-(6-{[3-(4-cyanophenyl)-1-(cyclopropylmethyl)-4-methyl-1H-pyrazol-5-yl]amino}pyrimidin-4-yl)-3,5-dimethyl-1H-pyrazole-4-carboxylate]	7
Cc1cc(C)n(-c2cc(Nc3c(C)c(-c4ccc(F)cc4)nn3CC(C)(O)C3CC3)ncn2)n1 (racemic) [Example 325, (±)-2-cyclopropyl-1-[5-{[6-(3,5-dimethyl-1H-pyrazol-1-yl)pyrimidin-4-yl]amino}-3-(4-fluorophenyl)-4-methyl-1H-pyrazol-1-yl]propan-2-ol (Racemate)]	1100
